Measured values taken from patent US11230555B2, “Bicyclic RORγ modulators” (Escalier Biosciences B.V., priority 2018, dated 2022).
pIC50: −log10 of the molar value.

Target: T1, RORγt (Homo sapiens, UniProt P51449)
T1 construct: purchased reporter-cell kit
T1 sequence (P51449 269-508 limits assumed): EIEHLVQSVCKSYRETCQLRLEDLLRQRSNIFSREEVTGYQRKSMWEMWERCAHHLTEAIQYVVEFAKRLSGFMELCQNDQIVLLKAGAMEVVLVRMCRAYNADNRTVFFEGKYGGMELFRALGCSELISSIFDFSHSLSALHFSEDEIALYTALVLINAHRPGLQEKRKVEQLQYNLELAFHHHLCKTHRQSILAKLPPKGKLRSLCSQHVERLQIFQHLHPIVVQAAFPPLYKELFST
Assay: Gal4 ligand binding assay (RORγt Gal fusion reporter assay)
Type: cell-based
Settings: inverse agonists, luciferase reporter, 24h
Method: Compounds of the present invention were tested in a human RORγ ligand binding assay using a commercially available cell based ligand binding reporter assay in 96-well format (Cat #IB04001, INDIGO Biosciences, State College, Pa.). The N-terminal DNA binding domains (DBD) of the native RORγ and RORγt receptors have been substituted with that of the yeast GAL4-DBD and stably transfected in […] cells that also stably express luciferase under the regulation by upstream activation sequence of yeast Gal4. These cells constitutively express high level RORγ activity due to binding of endogenous co-factors. Both agonist and inverse agonist activity can be detected. The assay was performed according to kit manufacturer's instructions as follows. 10 mM compound stocks were diluted serially 1:3 with DMSO and further diluted with provided media to generate 10 titration points from 60 μM to 3 nM. These treatment conditions were added to the plates as 2× media in 100 μL volume. Each plate includes a positive control with 10 titration points as well as 6negative control wells with vehicle only, with final DMSO concentration of 0.2%. RORγ reporter cells were rapidly thawed and added to the plates in 100 μL volume. The plates were incubated for 24h in a 37° C. humidified 5% CO2incubator. Media was removed before the addition of room temperature luciferous detection substrate. After 5 minute incubation, relative light units (RLUs) were quantified using a plate reading luminometer. Data was normalized to positive control wells with only […]. Before establishing internal controls, ursolic acid was used as control.

Compound	pIC50
Cc1cc(CN2CC3CCC(C2)C3NS(C)(=O)=O)ccc1-c1ccc(C(O)(C(F)(F)F)C(F)(F)F)cc1 (stereo not drawn) [Example 46, N-(3-((4′-(1,1,1,3,3,3-hexafluoro-2-hydroxypropan-2-yl)-2-methyl-[1,1′-biphenyl]-4-yl)methyl)-3-azabicyclo[3.2.1]octan-8-yl)methanesulfonamide]	< 6.60
CCOC(=O)N1C2CCC1CN(Cc1ccc(-c3ccc(C(O)(C(F)(F)F)C(F)(F)F)cc3)c(C)c1)C2 [Example 44, ethyl 3-((4′-(1,1,1,3,3,3-hexafluoro-2-hydroxypropan-2-yl)-2-methyl-[1,1′-biphenyl]-4-yl)methyl)-3,8-diazabicyclo[3.2.1]octane-8-carboxylate]	< 6.60
CS(=O)(=O)N1C2CCC1CN(c1cccc(-c3ccc(C(O)(C(F)(F)F)C(F)(F)F)cc3)c1)C2 [Example 9, 1,1,1,3,3,3-hexafluoro-2-(3′-(8-(methylsulfonyl)-3,8-diazabicyclo[3.2.1]octan-3-yl)-[1,1′-biphenyl]-4-yl)propan-2-ol]	< 6.60
Cc1cc(CN2CC3CCC(C2)N3Cc2ccncc2)ccc1-c1ccc(C(O)(C(F)(F)F)C(F)(F)F)cc1 [Example 78, 1,1,1,3,3,3-hexafluoro-2-(2′-methyl-4′-((8-(pyridin-4-ylmethyl)-3,8-diazabicyclo[3.2.1]octan-3-yl)methyl)-[1,1′-biphenyl]-4-yl)propan-2-ol]	> 7.30
CCc1c(-c2ccc(C(O)(C(F)(F)F)C(F)(F)F)cc2C)cc(F)c(CN2CC3CCC(C2)N3S(C)(=O)=O)c1F [Example 28, 2-(2′-ethyl-3′,5′-difluoro-2-methyl-4′-((8-(methylsulfonyl)-3,8-diazabicyclo[3.2.1]octan-3-yl)methyl)-[1,1′-biphenyl]-4-yl)-1,1,1,3,3,3-hexafluoropropan-2-ol]	> 7.30
OC(c1ccc(-c2ccc(CN3CC4CCC(C3)N4Cc3ccncc3)cc2F)cc1)(C(F)(F)F)C(F)(F)F [Example 59, 1,1,1,3,3,3-hexafluoro-2-(2′-fluoro-4′-((8-(pyridin-4-ylmethyl)-3,8-diazabicyclo[3.2.1]octan-3-yl)methyl)-[1,1′-biphenyl]-4-yl)propan-2-ol]	< 6.60
CCc1c(-c2ccc(C(O)(C(F)(F)F)C(F)(F)F)cc2Cl)cc(F)c(CN2CC3CCC(C2)N3S(C)(=O)=O)c1F [Example 10, 2-(2-chloro-2′-ethyl-3′,5′-difluoro-4′-((8-(methylsulfonyl)-3,8-diazabicyclo[3.2.1]octan-3-yl)methyl)-[1,1′-biphenyl]-4-yl)-1,1,1,3,3,3-hexafluoropropan-2-ol]	> 7.30
CCc1cc(CN2CC3CCC(C2)N3S(C)(=O)=O)cnc1-c1ccc(C(O)(C(F)(F)F)C(F)(F)F)cc1C [Example 33, 2-(4-(3-ethyl-5-((8-(methylsulfonyl)-3,8-diazabicyclo[3.2.1]octan-3-yl)methyl)pyridin-2-yl)-3-methylphenyl)-1,1,1,3,3,3-hexafluoropropan-2-ol]	< 6.60
CCc1cc(CN2CC3CCC(C2)N3S(C)(=O)=O)c(F)cc1-c1ccc(C(O)(C(F)(F)F)C(F)(F)F)cc1Cl [Example 19, 2-(2-chloro-2′-ethyl-5′-fluoro-4′-((8-(methylsulfonyl)-3,8-diazabicyclo[3.2.1]octan-3-yl)methyl)-[1,1′-biphenyl]-4-yl)-1,1,1,3,3,3-hexafluoropropan-2-ol]	> 7.30
CCc1c(F)c(CN2CC3CCC(C2)N3S(C)(=O)=O)cc(F)c1-c1ccc(C(O)(C(F)(F)F)C(F)(F)F)cc1F [Example 23, 2-(2′-ethyl-2,3′,6′-trifluoro-4′-((8-(methylsulfonyl)-3,8-diazabicyclo[3.2.1]octan-3-yl)methyl)-[1,1′-biphenyl]-4-yl)-1,1,1,3,3,3-hexafluoropropan-2-ol]	> 7.30
CCc1cc(CN2CC3CCC(C2)N3S(C)(=O)=O)ccc1-c1ccc(C(O)(C(F)(F)F)C(F)(F)F)cc1F [Example 24, 2-(2′-ethyl-2-fluoro-4′-((8-(methylsulfonyl)-3,8-diazabicyclo[3.2.1]octan-3-yl)methyl)-[1,1′-biphenyl]-4-yl)-1,1,1,3,3,3-hexafluoropropan-2-ol]	> 7.30
Cc1cc(CN2CC3CCC(C2)N3S(=O)(=O)Cc2ccccc2)ccc1-c1ccc(C(O)(C(F)(F)F)C(F)(F)F)cc1 [Example 65, 2-(4′-((8-(benzylsulfonyl)-3,8-diazabicyclo[3.2.1]octan-3-yl)methyl)-2′-methyl-[1,1′-biphenyl]-4-yl)-1,1,1,3,3,3-hexafluoropropan-2-ol]	< 6.60
CCN1C2CCC1CN(Cc1ccc(-c3ccc(C(O)(C(F)(F)F)C(F)(F)F)cc3)c(C)c1)C2 [Example 42, 2-(4′-((8-ethyl-3,8-diazabicyclo[3.2.1]octan-3-yl)methyl)-2′-methyl-[1,1′-biphenyl]-4-yl)-1,1,1,3,3,3-hexafluoropropan-2-ol]	< 6.60
Cc1cc(CN2CC3CCC(C2)N3S(=O)(=O)CC(F)(F)F)ccc1-c1ccc(C(O)(C(F)(F)F)C(F)(F)F)cc1 [Example 67, 1,1,1,3,3,3-hexafluoro-2-(2′-methyl-4′-((8-((2,2,2-trifluoroethyl)sulfonyl)-3,8-diazabicyclo[3.2.1]octan-3-yl)methyl)-[1,1′-biphenyl]-4-yl)propan-2-ol]	< 6.60
OC(c1ccc(-c2ccc(CN3CC4CCC(C3)N4Cc3ccncc3)cc2C(F)(F)F)cc1)(C(F)(F)F)C(F)(F)F [Example 58, 1,1,1,3,3,3-hexafluoro-2-(4′-((8-(pyridin-4-ylmethyl)-3,8-diazabicyclo[3.2.1]octan-3-yl)methyl)-2′-(trifluoromethyl)-[1,1′-biphenyl]-4-yl)propan-2-ol]	> 7.30
CCc1cc(CN2CC3CCC(C2)N3S(C)(=O)=O)ccc1-c1ccc(C(O)(C(F)(F)F)C(F)(F)F)cc1C(N)=O [Example 31, 2′-ethyl-4-(1,1,1,3,3,3-hexafluoro-2-hydroxypropan-2-yl)-4′-((8-(methylsulfonyl)-3,8-diazabicyclo[3.2.1]octan-3-yl)methyl)-[1,1′-biphenyl]-2-carboxamide]	< 6.60
CCc1cc(CN2[C@@H]3COC[C@H]2CN(S(C)(=O)=O)C3)ccc1-c1ccc(C(O)(C(F)(F)F)C(F)(F)F)cc1 [Example 8, 2-(2′-ethyl-4′-(((1R,5S)-7-(methylsulfonyl)-3-oxa-7,9-diazabicyclo[3.3.1]nonan-9-yl)methyl)-[1,1′-biphenyl]-4-yl)-1,1,1,3,3,3-hexafluoropropan-2-ol]	6.60 to 7.30
Cc1cc(CN2CC3CCC(C2)N3C(=O)C2CCOCC2)ccc1-c1ccc(C(O)(C(F)(F)F)C(F)(F)F)cc1 [Example 43, (3-((4′-(1,1,1,3,3,3-hexafluoro-2-hydroxypropan-2-yl)-2-methyl-[1,1′-biphenyl]-4-yl)methyl)-3,8-diazabicyclo[3.2.1]octan-8-yl)(tetrahydro-2H-pyran-4-yl)methanone]	6.60 to 7.30
Cc1cc(CN2CC3CCC(C2)N3S(=O)(=O)C(F)(F)F)ccc1-c1ccc(C(O)(C(F)(F)F)C(F)(F)F)cc1 [Example 60, 1,1,1,3,3,3-hexafluoro-2-(2′-methyl-4′-((8-((trifluoromethyl)sulfonyl)-3,8-diazabicyclo[3.2.1]octan-3-yl)methyl)-[1,1′-biphenyl]-4-yl)propan-2-ol]	< 6.60
CCc1c(F)c(CN2CC3CCC(C2)N3S(C)(=O)=O)cc(F)c1-c1ccc(C(O)(C(F)(F)F)C(F)(F)F)cc1Cl [Example 11, 2-(2-chloro-2′-ethyl-3′,6′-difluoro-4′-((8-(methylsulfonyl)-3,8-diazabicyclo[3.2.1]octan-3-yl)methyl)-[1,1′-biphenyl]-4-yl)-1,1,1,3,3,3-hexafluoropropan-2-ol]	> 7.30
Cc1cc(CN2CC3CCC(C2)N3C(=O)Cc2c(F)cccc2F)ccc1-c1ccc(C(O)(C(F)(F)F)C(F)(F)F)cc1 [Example 74, 2-(2,6-difluorophenyl)-1-(3-((4′-(1,1,1,3,3,3-hexafluoro-2-hydroxypropan-2-yl)-2-methyl-[1,1′-biphenyl]-4-yl)methyl)-3,8-diazabicyclo[3.2.1]octan-8-yl)ethan-1-one]	< 6.60
Cc1cc(CN2CC3CC2CN3Cc2ccncc2)ccc1-c1ccc(C(O)(C(F)(F)F)C(F)(F)F)cc1 (stereo not drawn) [Example 72, 1,1,1,3,3,3-hexafluoro-2-(2′-methyl-4′-((5-(pyridin-4-ylmethyl)-2,5-diazabicyclo[2.2.1]heptan-2-yl)methyl)-[1,1′-biphenyl]-4-yl)propan-2-ol]	< 6.60
Cc1cc(CN2CC3CC2CN3S(C)(=O)=O)ccc1-c1ccc(C(O)(C(F)(F)F)C(F)(F)F)cc1 (stereo not drawn) [Example 49, 1,1,1,3,3,3-hexafluoro-2-(2′-methyl-4′-((5-(methylsulfonyl)-2,5-diazabicyclo[2.2.1]heptan-2-yl)methyl)-[1,1′-biphenyl]-4-yl)propan-2-ol]	< 6.60
CCc1cc(CN2CC3CC2CN3S(C)(=O)=O)ccc1-c1ccc(C(O)(C(F)(F)F)C(F)(F)F)cc1 (stereo not drawn) [Example 38, 2-(2′-ethyl-4′-((5-(methylsulfonyl)-2,5-diazabicyclo[2.2.1]heptan-2-yl)methyl)-[1,1′-biphenyl]-4-yl)-1,1,1,3,3,3-hexafluoropropan-2-ol]	> 7.30
